For 16 molecules, Kinact/Kl results are on record in patent publication US20250230165A1, “HETEROCYCLIC COMPOUNDS FOR USE IN THE TREATMENT OF CANCER” (ARTIOS PHARMA LIMITED, priority 2021, published 2025).

The structures appear in SMILES notation.

In the assay the target is T1, Human Polθ polymerase domain (aa1820-2590) (Homo sapiens, UniProt O75417).
T1 construct: Human Polθ polymerase domain (aa1820-2590) was expressed in E. coli; made in house; host or cells: E. coli
T1 sequence (O75417 1820-2590): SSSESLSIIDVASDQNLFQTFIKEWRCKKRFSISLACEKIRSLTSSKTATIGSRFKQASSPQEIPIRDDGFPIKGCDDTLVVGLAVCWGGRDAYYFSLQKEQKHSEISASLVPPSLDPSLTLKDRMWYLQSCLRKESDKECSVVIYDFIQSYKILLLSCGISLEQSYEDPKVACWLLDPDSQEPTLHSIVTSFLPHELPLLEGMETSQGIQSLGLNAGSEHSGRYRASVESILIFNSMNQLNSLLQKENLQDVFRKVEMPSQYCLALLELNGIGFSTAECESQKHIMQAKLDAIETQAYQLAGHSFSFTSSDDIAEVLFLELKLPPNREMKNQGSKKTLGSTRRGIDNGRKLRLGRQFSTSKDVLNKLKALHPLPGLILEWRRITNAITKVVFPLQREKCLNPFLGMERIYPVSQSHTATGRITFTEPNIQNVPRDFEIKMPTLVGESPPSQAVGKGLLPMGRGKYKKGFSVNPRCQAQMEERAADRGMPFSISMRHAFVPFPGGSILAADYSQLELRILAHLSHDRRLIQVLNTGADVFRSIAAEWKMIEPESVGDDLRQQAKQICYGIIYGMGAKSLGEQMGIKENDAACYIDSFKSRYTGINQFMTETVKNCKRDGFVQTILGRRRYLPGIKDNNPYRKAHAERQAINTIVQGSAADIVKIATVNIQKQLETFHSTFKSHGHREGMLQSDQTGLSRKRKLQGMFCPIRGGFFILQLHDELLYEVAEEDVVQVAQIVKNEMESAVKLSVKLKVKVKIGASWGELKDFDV
In words: Polθ Polymerase Domain Kinact/KI Assay (PicoGreen). Type of assay: biochemical. As to conditions: 0.8 nM Polθ, 100 nM DNA substrate, kobs vs [I] fit for 2-step covalent inhibitor. The procedure, abridged: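 Kinact and KI derive from fitting kobs versus [I], where kobs were fitted from EDTA-stopped PicoGreen time courses (up to 60 min) in Tris pH 7.5 buffer with 1% DMSO, 0.8 nM enzyme, 100 nM DNA and […].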
The molecule `Cc1cc(C(F)(F)F)cc(N2C(=O)C[C@@H]3CN(CCCCNC(=O)/C=C/CN(C)C)c4c(Cl)cccc4N(C)C(=O)[C@H]32)n1` [Example 252, (E)-N-(4-((3aR,11aS)-6-chloro-10-methyl-1-(6-methyl-4-(trifluoromethyl)pyridin-2-yl)-2,11-dioxo-1,2,3,3a,4,10,11,11a-octahydro-5H-benzo[b]pyrrolo[2,3-f][1,4]diazocin-5-yl)butyl)-4-(dimethylamino)but-2-enamide] yielded a Kinact/Kl of 1.19e+06 M⁻¹ s⁻¹.

As for `Cc1cc(C(F)(F)F)cc(N2C(=O)C[C@@H]3CN(CC(F)CCCNC(=O)/C=C/CN(C)C)c4c(Cl)cccc4N(C)C(=O)[C@H]32)n1` (stereo partly drawn) [Example 253, (E)-N-(5-((3aR,11aS)-6-chloro-10-methyl-1-(6-methyl-4-(trifluoromethyl)pyridin-2-yl)-2,11-dioxo-1,2,3,3a,4,10,11,11a-octahydro-5H-benzo[b]pyrrolo[2,3-f][1,4]diazocin-5-yl)-4-fluoropentyl)-4-(dimethylamino)but-2-enamide], the Kinact/Kl was 1.42e+06 M⁻¹ s⁻¹.

Molecule `Cc1cc(C(F)(F)F)cc(N2C(=O)C[C@@H]3CN(CCCCC4CN(C(=O)/C(Cl)=C/CN(C)C)C4)c4c(C)cccc4N(C)C(=O)[C@H]32)n1` [Example 254, (3aR,11aS)-5-(4-(1-((Z)-2-chloro-4-(dimethylamino)but-2-enoyl)azetidin-3-yl)butyl)-6,10-dimethyl-1-(6-methyl-4-(trifluoromethyl)pyridin-2-yl)-1,3a,4,5,10,11a-hexahydro-2H-benzo[b]pyrrolo[2,3-f][1,4]diazocine-2,11(3H)-dione] displayed a Kinact/Kl of 2.13e+06 M⁻¹ s⁻¹.

As to `Cc1cc(C(F)(F)F)cc(N2C(=O)C[C@@H]3CN(Cc4ccc5c(c4)CN(C(=O)/C(Cl)=C/CN(C)C)C5)c4c(C)cccc4N(C)C(=O)[C@H]32)n1` [Example 255, (3aR,11aS)-5-((2-((Z)-2-chloro-4-(dimethylamino)but-2-enoyl)isoindolin-5-yl)methyl)-6,10-dimethyl-1-(6-methyl-4-(trifluoromethyl)pyridin-2-yl)-1,3a,4,5,10,11a-hexahydro-2H-benzo[b]pyrrolo[2,3-f][1,4]diazocine-2,11(3H)-dione], the Kinact/Kl was determined as 980000 M⁻¹ s⁻¹.

`C=CC(=O)N1CCN(CCN2C[C@H]3CC(=O)N(c4cc(C(F)(F)F)cc(C)n4)[C@@H]3C(=O)N(C)c3cccc(C)c32)CC1` [Example 256, (3aR,11aS)-5-(2-(4-acryloylpiperazin-1-yl)ethyl)-6,10-dimethyl-1-(6-methyl-4-(trifluoromethyl)pyridin-2-yl)-1,3a,4,5,10,11a-hexahydro-2H-benzo[b]pyrrolo[2,3-f][1,4]diazocine-2,11(3H)-dione] returned a Kinact/Kl of 1.11e+06 M⁻¹ s⁻¹.

In turn, `C=CC(=O)N1Cc2ncn(CCN3C[C@H]4CC(=O)N(c5cc(C(F)(F)F)cc(C)n5)[C@@H]4C(=O)N(C)c4cccc(Cl)c43)c2C1` [Example 259, (3aR,11aS)-5-(2-(5-acryloyl-5,6-dihydropyrrolo[3,4-d]imidazol-1(4H)-yl)ethyl)-6-chloro-10-methyl-1-(6-methyl-4-(trifluoromethyl)pyridin-2-yl)-1,3a,4,5,10,11a-hexahydro-2H-benzo[b]pyrrolo[2,3-f][1,4]diazocine-2,11(3H)-dione] came in with a Kinact/Kl of 150000 M⁻¹ s⁻¹.

Turning to `C=CC(=O)N1CCN(CCN2C[C@H]3CC(=O)N(c4cc(C(F)(F)F)cc(C)n4)[C@@H]3C(=O)N(C)c3cccc(C)c32)[C@@H](C)C1` [Example 260, (3aR,11aS)-5-(2-((S)-4-acryloyl-2-methylpiperazin-1-yl)ethyl)-6,10-dimethyl-1-(6-methyl-4-(trifluoromethyl)pyridin-2-yl)-1,3a,4,5,10,11a-hexahydro-2H-benzo[b]pyrrolo[2,3-f][1,4]diazocine-2,11(3H)-dione], the Kinact/Kl worked out at 1.54e+06 M⁻¹ s⁻¹.

The molecule `C=CC(=O)N1CC2CC(C1)N2CCN1C[C@H]2CC(=O)N(c3cc(C(F)(F)F)cc(C)n3)[C@@H]2C(=O)N(C)c2cccc(C)c21` [Example 261, (3aR,11aS)-5-(2-(3-acryloyl-3,6-diazabicyclo[3.1.1]heptan-6-yl)ethyl)-6,10-dimethyl-1-(6-methyl-4-(trifluoromethyl)pyridin-2-yl)-1,3a,4,5,10,11a-hexahydro-2H-benzo[b]pyrrolo[2,3-f][1,4]diazocine-2,11(3H)-dione] came in with a Kinact/Kl of 340000 M⁻¹ s⁻¹.

`C=CC(=O)N1CC2CCC(C1)N2CCN1C[C@H]2CC(=O)N(c3cc(C(F)(F)F)cc(C)n3)[C@@H]2C(=O)N(C)c2cccc(C)c21` [Example 262, (3aR,11aS)-5-(2-(3-acryloyl-3,8-diazabicyclo[3.2.1]octan-8-yl)ethyl)-6,10-dimethyl-1-(6-methyl-4-(trifluoromethyl)pyridin-2-yl)-1,3a,4,5,10,11a-hexahydro-2H-benzo[b]pyrrolo[2,3-f][1,4]diazocine-2,11(3H)-dione] came in with a Kinact/Kl of 710000 M⁻¹ s⁻¹.

For `C=CC(=O)N1C[C@H]2C[C@@H]1CN2CCN1C[C@H]2CC(=O)N(c3cc(C(F)(F)F)cc(C)n3)[C@@H]2C(=O)N(C)c2cccc(C)c21` [Example 263, (3aR,11aS)-5-(2-((1R,4R)-5-acryloyl-2,5-diazabicyclo[2.2.1]heptan-2-yl)ethyl)-6,10-dimethyl-1-(6-methyl-4-(trifluoromethyl)pyridin-2-yl)-1,3a,4,5,10,11a-hexahydro-2H-benzo[b]pyrrolo[2,3-f][1,4]diazocine-2,11(3H)-dione], the Kinact/Kl came to 1.06e+06 M⁻¹ s⁻¹.

Molecule `C#CC(=O)N1CCN(CCN2C[C@H]3CC(=O)N(c4cc(C(F)(F)F)cc(C)n4)[C@@H]3C(=O)N(C)c3cccc(C)c32)CC1` [Example 264, (3aR,11aS)-6,10-dimethyl-1-(6-methyl-4-(trifluoromethyl)pyridin-2-yl)-5-(2-(4-propioloylpiperazin-1-yl)ethyl)-1,3a,4,5,10,11a-hexahydro-2H-benzo[b]pyrrolo[2,3-f][1,4]diazocine-2,11(3H)-dione] came in with a Kinact/Kl of 1.25e+06 M⁻¹ s⁻¹.

The molecule `C=CC(=O)N1CCN(CCCN2C[C@H]3CC(=O)N(c4cc(C(F)(F)F)cc(C)n4)[C@@H]3C(=O)N(C)c3cccc(Cl)c32)CC1` [Example 266, (3aR,11aS)-5-(3-(4-acryloylpiperazin-1-yl)propyl)-6-chloro-10-methyl-1-(6-methyl-4-(trifluoromethyl)pyridin-2-yl)-1,3a,4,5,10,11a-hexahydro-2H-benzo[b]pyrrolo[2,3-f][1,4]diazocine-2,11(3H)-dione] returned a Kinact/Kl of 590000 M⁻¹ s⁻¹.

`C=CC(=O)N1CCC[C@@H]1c1noc(CN2C[C@H]3CC(=O)N(c4cc(C(F)(F)F)cc(C)n4)[C@@H]3C(=O)N(C)c3cccc(C)c32)n1` [Example 268, (3aR,11aS)-5-((3-((R)-1-acryloylpyrrolidin-2-yl)-1,2,4-oxadiazol-5-yl)methyl)-6,10-dimethyl-1-(6-methyl-4-(trifluoromethyl)pyridin-2-yl)-1,3a,4,5,10,11a-hexahydro-2H-bez[b]pyrrolo[2,3-f][1,4]diazocine-2,11(3H)-dione] registered a Kinact/Kl of 410000 M⁻¹ s⁻¹.

With `C=CC(=O)N1CCC[C@H]1c1noc(CN2C[C@H]3CC(=O)N(c4cc(C(F)(F)F)cc(C)n4)[C@@H]3C(=O)N(C)c3cccc(C)c32)n1` [Example 269, (3aR,11aS)-5-((3-((S)-1-acryloylpyrrolidin-2-yl)-1,2,4-oxadiazol-5-yl)methyl)-6,10-dimethyl-1-(6-methyl-4-(trifluoromethyl)pyridin-2-yl)-1,3a,4,5,10,11a-hexahydro-2H-benzo[b]pyrrolo[2,3-f][1,4]diazocine-2,11(3H)-dione], the Kinact/Kl was determined as 970000 M⁻¹ s⁻¹.

In the case of `C=CC(=O)N1CCC[C@@H]1c1nc(CN2C[C@H]3CC(=O)N(c4cc(C(F)(F)F)cc(C)n4)[C@@H]3C(=O)N(C)c3cccc(C)c32)no1` [Example 270, (3aR,11aS)-5-((5-((R)-1-acryloylpyrrolidin-2-yl)-1,2,4-oxadiazol-3-yl)methyl)-6,10-dimethyl-1-(6-methyl-4-(trifluoromethyl)pyridin-2-yl)-1,3a,4,5,10,11a-hexahydro-2H-benzo[b]pyrrolo[2,3-f][1,4]diazocine-2,11(3H)-dione], the Kinact/Kl stood at 110000 M⁻¹ s⁻¹.

With `C=CC(=O)N1CCC[C@H]1c1nc(CN2C[C@H]3CC(=O)N(c4cc(C(F)(F)F)cc(C)n4)[C@@H]3C(=O)N(C)c3cccc(C)c32)no1` [Example 271, (3aR,11aS)-5-((5-((S)-1-acryloylpyrrolidin-2-yl)-1,2,4-oxadiazol-3-yl)methyl)-6,10-dimethyl-1-(6-methyl-4-(trifluoromethyl)pyridin-2-yl)-1,3a,4,5,10,11a-hexahydro-2H-benzo[b]pyrrolo[2,3-f][1,4]diazocine-2,11(3H)-dione], the Kinact/Kl came out at 200000 M⁻¹ s⁻¹.
